Experiment: Delivery of lutein across chicken egg epithelial membrane with polyamine/amine carrier
Details: not given
Method: The membrane was washed in deionized water.
Lutein is a naturally occurring carotenoid that reduces the progression of age-related macular degeneration and cataracts. Lutein has a characteristic absorbance which can be measured using a plate reader, and thus it was not necessary to label the lutein with FAM. The absorbance of the solution which had crossed the membrane was measured and compared to the absorbance of the stock solution.

Row | SMILES | % peptide transported across membrane [%] | amount of lutein transported across the membrane (bound stated in text) [%] | improvement in the amount of lutein transported across the membrane
1 | NCCC(=O)N[C@@H](Cc1cnc[nH]1)C(=O)O [L-Carnosine] | 7.4 | > 5 | –
2 | CNCCN [N-Methylethylenediamine] | 20.9 | > 20 | –
3 | CCN(CC)CC [Triethylamine] | – | – | did not significantly improve
4 | NC(N)=O [Urea] | 1.7 | – | –

Same assay, conditions: Table 2; lutein with the named polyamine or amine moiety; methodology of Example 1

Row | SMILES | % peptide transported across membrane [%]
5 | NCCCN [1,3-Diaminopropane] | 0.2

Same assay, conditions: chicken, 60 seconds

Row | SMILES | % peptide transported across membrane [%] | amount of lutein transported across the membrane (bound stated in text) [%] | lutein crossed the membrane | lutein transported across the membrane [%]
6 | NCCCNCCNCCCN [1,2-Bis(3-aminopropylamino)ethane] | 22.0 | > 20 | – | –
7 | CNCCCN [3-(Methylamino)propylamine] | 6.5 | > 5 | – | –
8 | CCCCNCCCC [Dibutylamine] | 10.7 | > 5 | – | –
9 | NCCN [Ethylenediamine] | 2.3 | – | – | –
10 | N=C(N)N [Guanidine] | 8.0 | > 5 | – | –
11 | CC(C)N(CCN)C(C)C [N,N-Diisopropylethylenediamine] | 6.7 | > 5 | – | –
12 | NCCCNCCCNCCCN [N,N′-Bis(3-aminopropyl)-1,3-propanediamine] | 19.5 | > 5 | – | –
13 | NCCCCN [Putrescine] | 12.7 | > 5 | – | –
14 | NCCCCNCCCN [Spermidine] | 25.7 | > 20 | – | –
15 | NCCCNCCCCNCCCN [Spermine] | 27.8 | > 20 | – | –
16 | NCCNCCNCCNCCN [Tetraethylenepentamine] | 11.5 | > 5 | – | –
17 | CCN(CC)CC [Triethylamine] | 2.2 | – | – | –
18 | NCCN(CCN)CCN [Tris(2-aminoethyl)amine] | 4.7 | – | – | –
19 | NCCc1ccc(O)cc1 [Tyramine] | 14.1 | > 5 | – | –
20 | CC1=C[C@H](O)CC(C)(C)[C@H]1/C=C/C(C)=C/C=C/C(C)=C/C=C/C=C(C)/C=C/C=C(C)/C=C/C1=C(C)C[C@@H](O)CC1(C)C [lutein, Lutein, reference compound] | – | – | about 6% | 0.5

Same assay, conditions: versus control without carrier; Example 5

Row | SMILES | improvement in the amount of lutein transported across the membrane
21 | NCCCN [1,3-Diaminopropane] | did not significantly improve
22 | NCCN [Ethylenediamine] | did not significantly improve

Experiment: Delivery of fluorescence-labelled bevacizumab into the posterior segment of ex vivo porcine eyes
Assay type: in vitro ADME
Details: various incubation times
Method: Further tests on porcine eyes was carried out with fluorescence-labelled bevacizumab. […] The same methodology as described in Example 3 was used, but with various incubation times.

Row | SMILES | effect of longer incubation time on amount of bevacizumab transported into the eye tissue
23 | NCCCCNCCCN [Spermidine] | increased with increasing incubation time
24 | NCCCNCCCCNCCCN [Spermine] | did not result in higher delivery

Experiment: not given
Details: chicken, 60 seconds

Row | SMILES | % peptide transported across membrane [%]
25 | N=C(N)N [Guanidine] | 7.9
26 | CC(C)N(CCN)C(C)C [N,N-Diisopropylethylenediamine] | 3.3
27 | NCCNCCNCCNCCN [Tetraethylenepentamine] | 28.8
28 | NCCN(CCN)CCN [Tris(2-aminoethyl)amine] | 41.0
29 | NCCc1ccc(O)cc1 [Tyramine] | 11.3

Experiment: not given
Details: chicken, 60 seconds
Remark: another data set of the same source

Row | SMILES | % peptide transported across membrane [%]
30 | NCCCNCCNCCCN [1,2-Bis(3-aminopropylamino)ethane] | 14.1
31 | CNCCCN [3-(Methylamino)propylamine] | 3.4
32 | CCCCNCCCC [Dibutylamine] | 4.0
33 | NCCN [Ethylenediamine] | 5.7
34 | N=C(N)N [Guanidine] | 4.0
35 | CC(C)N(CCN)C(C)C [N,N-Diisopropylethylenediamine] | 9.1
36 | NCCCNCCCNCCCN [N,N′-Bis(3-aminopropyl)-1,3-propanediamine] | 32.4
37 | NCCCCN [Putrescine] | 6.9
38 | NCCCCNCCCN [Spermidine] | 22.3
39 | NCCCNCCCCNCCCN [Spermine] | 28.1
40 | NCCNCCNCCNCCN [Tetraethylenepentamine] | 19.7
41 | CCN(CC)CC [Triethylamine] | 7.1
42 | NCCN(CCN)CCN [Tris(2-aminoethyl)amine] | 11.4
43 | NCCc1ccc(O)cc1 [Tyramine] | 5.8

Experiment: Delivery of fluorescent (FAM-tagged) peptide across chicken egg epithelial membrane with polyamine/amine carrier
Details: fold versus control without carrier; Example 5

Row | SMILES | amount of peptide transported across the membrane compared with the control test
44 | NCCCNCCNCCCN [1,2-Bis(3-aminopropylamino)ethane] | twice as much peptide
45 | NCCCNCCCN [Bis(3-aminopropyl)amine] | five times more peptide
46 | NCCCNCCCNCCCN [N,N′-Bis(3-aminopropyl)-1,3-propanediamine] | five times more peptide
47 | NCCCCNCCCN [Spermidine] | five times more peptide
48 | NCCCNCCCCNCCCN [Spermine] | twice as much peptide

Experiment: Delivery of fluorescence-labelled bevacizumab across chicken egg epithelial membrane with polyamine/amine carrier
Details: Table 3; fluorescence-labelled bevacizumab with the named polyamine or amine moiety; methodology of Example 1

Row | SMILES | % peptide transported across membrane [%]
49 | NCCCN [1,3-Diaminopropane] | 4.4

Same assay, conditions: fold versus control without carrier; Example 5

Row | SMILES | amount of bevacizumab transported across the membrane compared to the control sample
50 | NCCCNCCCN [Bis(3-aminopropyl)amine] | more than twice as much
51 | NCCCCCN [Cadaverine] | more than twice as much

Same assay, conditions: versus control without carrier; Example 5

Row | SMILES | improvement in the amount of bevacizumab transported across the membrane
52 | NCCCN [1,3-Diaminopropane] | did not significantly improve
53 | NCCN [Ethylenediamine] | did not significantly improve

— patent publication US20250281617A1, “Drug Delivery System” (The University of Birmingham, priority 2019, published 2025)
